This assay has as its target T1, purified human HDAC6 (Homo sapiens, UniProt Q9UBN7).
T1 construct: purchased BPS Bioscience 5006
T1 sequence (Q9UBN7 1-1215): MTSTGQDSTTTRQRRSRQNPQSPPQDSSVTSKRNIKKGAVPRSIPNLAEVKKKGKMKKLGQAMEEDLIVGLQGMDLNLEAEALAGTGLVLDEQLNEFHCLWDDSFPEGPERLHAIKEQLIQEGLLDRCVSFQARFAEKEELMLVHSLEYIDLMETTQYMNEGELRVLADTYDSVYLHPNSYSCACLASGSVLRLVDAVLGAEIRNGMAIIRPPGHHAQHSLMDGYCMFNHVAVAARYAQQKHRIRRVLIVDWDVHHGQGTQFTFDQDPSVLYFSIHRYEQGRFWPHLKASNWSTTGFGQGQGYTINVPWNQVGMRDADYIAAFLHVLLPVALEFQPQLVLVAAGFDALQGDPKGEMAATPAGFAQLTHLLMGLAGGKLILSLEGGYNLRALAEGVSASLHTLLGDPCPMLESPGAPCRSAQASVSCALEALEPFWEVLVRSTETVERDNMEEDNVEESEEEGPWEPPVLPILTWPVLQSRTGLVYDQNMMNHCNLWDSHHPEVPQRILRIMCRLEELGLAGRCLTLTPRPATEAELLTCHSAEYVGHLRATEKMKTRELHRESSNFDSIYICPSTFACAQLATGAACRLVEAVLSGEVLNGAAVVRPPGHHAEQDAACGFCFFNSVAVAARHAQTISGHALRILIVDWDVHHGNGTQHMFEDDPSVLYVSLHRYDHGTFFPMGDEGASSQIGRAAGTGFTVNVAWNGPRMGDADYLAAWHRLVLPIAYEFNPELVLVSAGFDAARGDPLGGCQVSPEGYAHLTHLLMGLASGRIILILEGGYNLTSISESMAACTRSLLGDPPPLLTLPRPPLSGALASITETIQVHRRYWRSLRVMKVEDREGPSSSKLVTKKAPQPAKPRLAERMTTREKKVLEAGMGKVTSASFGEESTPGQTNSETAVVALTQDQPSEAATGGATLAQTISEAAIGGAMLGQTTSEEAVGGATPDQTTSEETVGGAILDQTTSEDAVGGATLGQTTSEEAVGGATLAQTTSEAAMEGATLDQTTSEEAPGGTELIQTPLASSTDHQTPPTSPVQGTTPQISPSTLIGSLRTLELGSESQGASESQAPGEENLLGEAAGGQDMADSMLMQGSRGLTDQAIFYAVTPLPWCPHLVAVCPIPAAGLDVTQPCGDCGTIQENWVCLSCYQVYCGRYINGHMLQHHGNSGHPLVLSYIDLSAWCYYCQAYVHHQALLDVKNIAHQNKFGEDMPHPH
Briefly: HDAC6 Enzyme Assay. In kind it is biochemical. The note with it: HDAC6 inhibition at a compound concentration of 0.412 μM; read-out: Percent Inhibition at 0.412 μM.

As usually defined, the inhibition is the percentage by which the read-out fell short of the control.

As for `CN(C)c1ccc(-c2ccc3c(c2)CC(C(=O)NO)CC3)cc1` (centres unmarked) [Compound I-92, 7-[4-(dimethylamino)phenyl]-N-hydroxy-1,2,3,4-tetrahydronaphthalene-2-carboxamide], the inhibition at 0.412 µM amounted to 67%.
Take `CN(C)S(=O)(=O)c1cccc(-c2ccc3c(c2)CC(C(=O)NO)CC3)c1` (centres unmarked) [Compound I-93, 7-{3-[(dimethylamino)sulfonyl]phenyl}-N-hydroxy-1,2,3,4-tetrahydronaphthalene-2-carboxamide]: the inhibition at 0.412 µM is 79%.
The value for `CCCc1ccc(-c2ccc3c(c2)CC(C(=O)NO)CC3)cc1` (centres unmarked) [Compound I-94, N-hydroxy-7-(4-propylphenyl)-1,2,3,4-tetrahydronaphthalene-2-carboxamide] was 62%.
The value for `COc1ccc(-c2ccc3c(c2)CC(C(=O)NO)CC3)c(C)c1` (centres unmarked) [Compound I-95, N-hydroxy-7-(4-methoxy-2-methylphenyl)-1,2,3,4-tetrahydronaphthalene-2-carboxamide] was 78%; that for `O=C(NO)C1CCc2ccc(-c3csc4ccccc34)cc2C1` (centres unmarked) [Compound I-96, 7-(1-benzothien-3-yl)-N-hydroxy-1,2,3,4-tetrahydronaphthalene-2-carboxamide] was 79%; that for `O=C(NO)C1CCc2ccc(-c3ccc(N4CCCC4)nc3)cc2C1` (centres unmarked) [Compound I-97, N-hydroxy-7-(6-pyrrolidin-1-ylpyridin-3-yl)-1,2,3,4-tetrahydronaphthalene-2-carboxamide] was 81%.
On to `Cc1ccc(-c2ccc3c(c2)CC(C(=O)NO)CC3)c2ccccc12` (centres unmarked) [Compound I-98, N-hydroxy-4-methyl-5′,6′,7′,8′-tetrahydro-1,2′-binaphthalene-7′-carboxamide], for which the inhibition at 0.412 µM was found to be 78%.
The same measure for `O=C(NO)C1CCc2ccc(-c3ccc(N4CCOCC4)nc3)cc2C1` (centres unmarked) [Compound I-99, N-hydroxy-7-(6-morpholin-4-ylpyridin-3-yl)-1,2,3,4-tetrahydronaphthalene-2-carboxamide]: 82%; for `CNC(=O)c1cc(F)cc(-c2ccc3c(c2)CC(C(=O)NO)CC3)c1` (centres unmarked) [Compound I-100, 7-{3-fluoro-5-[(methylamino)carbonyl]phenyl}-N-hydroxy-1,2,3,4-tetrahydronaphthalene-2-carboxamide]: 84%.
The value for `COc1ccc(-c2ccc3c(c2)CC(C(=O)NO)CC3)cc1F` (centres unmarked) [Compound I-101, 7-(3-fluoro-4-methoxyphenyl)-N-hydroxy-1,2,3,4-tetrahydronaphthalene-2-carboxamide] was 82%; that for `Cc1cc(F)ccc1-c1ccc2c(c1)CC(C(=O)NO)CC2` (centres unmarked) [Compound I-102, 7-(4-fluoro-2-methylphenyl)-N-hydroxy-1,2,3,4-tetrahydronaphthalene-2-carboxamide] was 76%.
The same measure for `O=C(NO)C1CCc2ccc(-c3ccoc3)cc2C1` (centres unmarked) [Compound I-103, 7-(3-furyl)-N-hydroxy-1,2,3,4-tetrahydronaphthalene-2-carboxamide]: 72%; for `O=C(NO)C1CCc2ccc(-c3ccc([N+](=O)[O-])cc3)cc2C1` (centres unmarked) [Compound I-104, N-hydroxy-7-(4-nitrophenyl)-1,2,3,4-tetrahydronaphthalene-2-carboxamide]: 78%.
Take `N#Cc1cc(-c2ccc3c(c2)CC(C(=O)NO)CC3)ccc1F` (centres unmarked) [Compound I-105, 7-(3-cyano-4-fluorophenyl)-N-hydroxy-1,2,3,4-tetrahydronaphthalene-2-carboxamide]: the inhibition at 0.412 µM turned out to be 61%.
The value for `O=C(NO)C1CCc2ccc(-c3cccc([N+](=O)[O-])c3)cc2C1` (centres unmarked) [Compound I-106, N-hydroxy-7-(3-nitrophenyl)-1,2,3,4-tetrahydronaphthalene-2-carboxamide] was 83%.
Turning to `CCOc1cccc(-c2ccc3c(c2)CC(C(=O)NO)CC3)c1` (centres unmarked) [Compound I-107, 7-(3-ethoxyphenyl)-N-hydroxy-1,2,3,4-tetrahydronaphthalene-2-carboxamide], the inhibition at 0.412 µM was found to be 86%.
In the case of `CN(C)C(=O)c1ccc(-c2ccc3c(c2)CC(C(=O)NO)CC3)cc1F` (centres unmarked) [Compound I-108, 7-{4-[(dimethylamino)carbonyl]-3-fluorophenyl}-N-hydroxy-1,2,3,4-tetrahydronaphthalene-2-carboxamide], the inhibition at 0.412 µM came out at 75%.
The value for `COc1ccc(-c2ccc3c(c2)CC(C(=O)NO)CC3)cc1OC` (centres unmarked) [Compound I-109, 7-(3,4-dimethoxyphenyl)-N-hydroxy-1,2,3,4-tetrahydronaphthalene-2-carboxamide] was 82%.
As to `O=C(NO)C1CCc2ccc(-c3cccc(-c4ccccc4)c3)cc2C1` (centres unmarked) [Compound I-110, 7-biphenyl-3-yl-N-hydroxy-1,2,3,4-tetrahydronaphthalene-2-carboxamide], the inhibition at 0.412 µM is 83%.
The same measure for `Cc1ccc(C)c(-c2ccc3c(c2)CC(C(=O)NO)CC3)c1` (centres unmarked) [Compound I-111, 7-(2,5-dimethylphenyl)-N-hydroxy-1,2,3,4-tetrahydronaphthalene-2-carboxamide]: 74%.
The value for `O=C(NO)C1CCc2ccc(-c3ccc(C(F)(F)F)cc3)cc2C1` (centres unmarked) [Compound I-112, N-hydroxy-7-[4-(trifluoromethyl)phenyl]-1,2,3,4-tetrahydronaphthalene-2-carboxamide] was 58%; that for `O=C(NO)C1CCc2ccc(-c3ccc(F)c(C(=O)N4CCCC4)c3)cc2C1` (centres unmarked) [Compound I-113, 7-[4-fluoro-3-(pyrrolidin-1-ylcarbonyl)phenyl]-N-hydroxy-1,2,3,4-tetrahydronaphthalene-2-carboxamide] was 89%; that for `COc1ccc2cc(-c3ccc4c(c3)CC(C(=O)NO)CC4)ccc2c1` (centres unmarked) [Compound I-114, N-hydroxy-6′-methoxy-5,6,7,8-tetrahydro-2,2′-binaphthalene-7-carboxamide] was 76%.
The value for `CN(C)C(=O)c1cc(-c2ccc3c(c2)CC(C(=O)NO)CC3)ccc1Cl` (centres unmarked) [Compound I-115, 7-{4-chloro-3-[(dimethylamino)carbonyl]phenyl}-N-hydroxy-1,2,3,4-tetrahydronaphthalene-2-carboxamide] was 83%.
`CC(C)Oc1ncccc1-c1ccc2c(c1)CC(C(=O)NO)CC2` (centres unmarked) [Compound I-116, N-hydroxy-7-(2-isopropoxypyridin-3-yl)-1,2,3,4-tetrahydronaphthalene-2-carboxamide]: the inhibition at 0.412 µM was found to be 82%.
The value for `O=C(NO)C1CCc2ccc(-c3ccc(S(=O)(=O)N4CCOCC4)cc3)cc2C1` (centres unmarked) [Compound I-117, N-hydroxy-7-[4-(morpholin-4-ylsulfonyl)phenyl]-1,2,3,4-tetrahydronaphthalene-2-carboxamide] was 74%; that for `O=C(NO)C1CCc2ccc(-c3ccc(C(=O)N4CCCC4)c(F)c3)cc2C1` (centres unmarked) [Compound I-118, 7-[3-fluoro-4-(pyrrolidin-1-ylcarbonyl)phenyl]-N-hydroxy-1,2,3,4-tetrahydronaphthalene-2-carboxamide] was 77%.
The same measure for `O=C(NO)C1CCc2ccc(-c3ccc(F)c(Cl)c3)cc2C1` (centres unmarked) [Compound I-119, 7-(3-chloro-4-fluorophenyl)-N-hydroxy-1,2,3,4-tetrahydronaphthalene-2-carboxamide]: 69%; for `CC(C)(C#N)c1ccc(-c2ccc3c(c2)CC(C(=O)NO)CC3)cc1` (centres unmarked) [Compound I-120, 7-[4-(1-cyano-1-methylethyl)phenyl]-N-hydroxy-1,2,3,4-tetrahydronaphthalene-2-carboxamide]: 55%.
The value for `O=C(NO)C1CCc2ccc(-c3ccc(OCc4ccccc4)cc3)cc2C1` (centres unmarked) [Compound I-121, 7-[4-(benzyloxy)phenyl]-N-hydroxy-1,2,3,4-tetrahydronaphthalene-2-carboxamide] was 54%; that for `CC(C)Cc1ccc(-c2ccc3c(c2)CC(C(=O)NO)CC3)cc1` (centres unmarked) [Compound I-122, N-hydroxy-7-(4-isobutylphenyl)-1,2,3,4-tetrahydronaphthalene-2-carboxamide] was 34%.
Regarding `O=C(NO)C1CCc2ccc(-c3ccc(S(=O)(=O)N4CCCCC4)cc3)cc2C1` (centres unmarked) [Compound I-123, N-hydroxy-7-[4-(piperidin-1-ylsulfonyl)phenyl]-1,2,3,4-tetrahydronaphthalene-2-carboxamide], the inhibition at 0.412 µM turned out to be 61%.

The values are drawn from patent publication US20140243334A1, “SUBSTITUTED HYDOXAMIC ACIDS AND USES THEREOF” (Millennium Pharmaceuticals, Inc., priority 2010, published 2014).
